# Test results taken from US20260229370A1, “[…] BENEFIT/RISK ASSESSMENT METHOD SUITABLE FOR THE PHYSIOLOGICAL ACTIVITY OF NATURAL MATRICES-BASED […] OR BENEFICIAL PRODUCTS WITH RESPECT TO THAT OF OTHER PRODUCTS WITH PHARMACOLOGICAL OR NUTRACEUTICAL ACTIVITY BASED ON […] MOLECULES” (Bios-Therapy, Physiological Systems for Health S.p.A., priority 2025, published 2026).
# Columns and labels:
# [1] = In vivo body weight (potential weight loss) at the end of experimentation; design: species or system mice; conditions: mouse
# Experimental: (§1) The risk (intended as side effects) was estimated through the observation of behavioural parameters (impacting the behaviour itself, the locomotor system, muscle strength and nervous reflexes) and through the potential weight loss of the animal.
# (§2) Data obtained by animal testing, considered in the context of the risk, are behavioural parameters and body weight loss at the end of experimentation.
# The potential weight loss of the treated animals was also assessed.” Data were processed using the formula: […]
# (§3) The benefit (intended as therapeutic activity) was instead evaluated by taking into consideration the reduction in size of the tumour mass compared to the untreated tumour. For this purpose, immunocompromised mice bearing xenografted FaDu head and neck squamous carcinoma cells were included in the study once tumours reached a volume of 100 mm^3. Mice received daily intratumoral injections of EpigenAU/11 and intraperitoneal cisplatin on alternating days.
# [2] = test system: xenografted FaDu head and neck squamous carcinoma cells; experiment: In vivo tumour mass size in mice bearing xenografted FaDu cells (benefit); conditions: daily intratumoral EpigenAU/11, intraperitoneal cisplatin on alternating days; treated day 27; vehicle 1.38
# Experimental: Data obtained by animal testing, considered in the context of benefit, is the tumour mass size reached at the end of in vivo test for each treatment.
# Data were calculated as “Reduction in the size of tumour mass” by the formula:
# 1−[“Tumour mass size collected from treated animals (day of observation: 27)/Tumour mass size collected from untreated animals (day of observation: 19)]
# as §3
# [3] = In vivo observation of behavioural parameters (risk, side effects) in mouse model; design: species or system mice
# Text: as §1, §2
# The behavioural parameters monitored are listed below: • 1. Loss of Spontaneous activity • 2. Loss of Cleaning • 3. Loss of Curiosity • 4. Loss of Reactivity • 5. Loss of Straightening reflex • 6. Loss of Physical strength • 7. Impairment of Palpebral opening • 8. Palpebral reflex • 9. Tremors • 10. Pallor • 11. Stereotypies • 12. Passivity
# The values of the parameters 1-8 are normalized as: “Not treated animal value” (always equal to 0)+“Treated animal value”.
# The values of the parameters 9-12 are normalized as: “Not treated animal value”−“Treated animal value”.
# as §3
structure (smiles),measurement,setting,value
N.N.[Cl][Pt][Cl] [Cisplatin],"Body weight (Nutritional and metabolic system), Mean",[1],29.12
same,"Size of tumor masses (Tumor viability), Mean",[2],0.50
same,"Cleaning (Behaviour), Mean",[3],2.90
same,"Curiosity (Behaviour), Mean",[3],2.60
same,"Pallor (Nervous system), Mean",[3],2.00
same,"Palpebral opening (Nervous system), Mean",[3],2.00
same,"Palpebral reflex (Nervous system), Mean",[3],2.80
same,"Passivity (Behaviour), Mean",[3],1.60
same,"Physical strenght (Muscle), Mean",[3],2.70
same,"Reactivity (Behaviour), Mean",[3],2.20
same,"Spontaneous activity (Behaviour), Mean",[3],2.50
same,"Stereolipies (Locomotor system), Mean",[3],0.00
same,"Straightening reflex (Locomotor system), Mean",[3],2.60
same,"Tremors (Nervous system), Mean",[3],0.80
